Measured values: patent US20230330093A1, “APPLICATION OF NITROGEN-CONTAINING SATURATED HETEROCYCLIC COMPOUND” (SHANGHAI PHARMACEUTICALS HOLDING CO., LTD., priority 2020, published 2023)
Values joined by “and” are separate entries in the source; they are usually repeats but may differ in a detail not shown here. Identical values can stand only once.

Experiments:
[1] = tested on: rhesus monkeys with spontaneous chronic kidney disease (CKD); assay: Effect on UACR (proteinuria), 8-week oral administration; assay type: in vivo, Macaca mulatta (Rhesus Macaque); conditions: for UACR Benefit assessment: per animal; for MALB / UACR: per animal + Mean ± SD; for UACR change rate: 8 weeks vs baseline, negative = decrease
Method: CKD-EPI rating […]-G3b, glomerular filtration rate eGFR: 30 59 ml/min/1.73 m^2; or moderate to severe increase in proteinuria (A2-A3): urine albumin/creatinine ratio (UACR)>15 mg/g-350 mg/g (4-6 hour urine collection), vs. age-matched control group 3±2 mg/g. In the trial, animals were brought in three stages. […] ELISA kit was used for NT-proBNP test. [table]

[2] = tested on: rhesus monkeys with spontaneous chronic kidney disease; assay: Effect on heart function, cardiac Doppler ultrasound, 8-week administration
Method: In the trial, animals were brought in three stages.
This was performed once before administration and once after administration. UACR=MALB/Cr—U. • Blood pressure: the blood pressure was checked after anesthesia, including systolic blood pressure (SBP), diastolic blood pressure (DBP), mean blood pressure (MBP) and heart rate (HR). This was performed once before administration and once at weeks 4 and 8 respectively after administration. • Cardiac GE Doppler ultrasound: historical cardiac ultrasonography once within 1 year (selected animals), once before administration (within 30 days (D-30) of the baseline period), and once at week 8 after administration.
Anesthesia method: 15 mg/kg of ketamine hydrochloride was used for intramuscular injection anesthesia. According to the animal anesthesia state, the supplemental anesthesia will be performed after judgment by veterinarian. Each supplemental anesthesia dose was ½ of the initial dose.
Detection method: The animal was placed in the left decubitus position, and the 6S-RS probe (frequency 2.7-8.0 MHz) was used for image acquisition.
Analysis method: After the image was collected and saved, the supporting analysis workstation EchoPAC Software was used to repeatedly detect various indicators of systolic and diastolic functions in 3 consecutive cardiac cycles.
Testing indicators and ultrasonic technology: see Table 9 below.
Testing equipment: GE Vivid S5 color Doppler ultrasound diagnostic system.

[3] = 1 mg/kg oral once a day, 8 weeks
[4] = 1 mg/kg oral once a day, 8 weeks, mean
[5] = 1 mg/kg oral once a day, Baseline
[6] = 1 mg/kg oral once a day, Baseline, mean
[7] = 2 mg/kg oral once a day, 4 weeks
[8] = 2 mg/kg oral once a day, 4 weeks, mean
[9] = 2 mg/kg oral once a day, 8 weeks
[10] = 2 mg/kg oral once a day, 8 weeks, mean
[11] = 2 mg/kg oral once a day, Baseline
[12] = 2 mg/kg oral once a day, Baseline, mean
[13] = 5 mg/kg oral once a day, 8 weeks
[14] = 5 mg/kg oral once a day, 8 weeks, mean
[15] = 5 mg/kg oral once a day, Baseline
[16] = 5 mg/kg oral once a day, Baseline, mean

For COC(=O)NCCCn1nc([C@@H](C)N(C(=O)[C@H]2CNCCO2)C2CC2)c2ccc(C)nc21.O=C(O)C[C@H](O)C(=O)O [malate of compound of Formula I], the “UACR Benefit assessment” value [1, 3] was “Benefit and No”, the MALB [1, 3] was 5.2 mg/L and 38.4 mg/L and 0.8 mg/L and 7.6 mg/L and 1.1 mg/L and the UACR [1, 3] was 20.0 mg/g and 32.5 mg/g and 3.1 mg/g and 2.6 mg/g and 6.1 mg/g. The MALB [1, 4] was 10.6 ± 15.8 mg/L, the UACR [1, 4] was 12.9 ± 13.0 mg/g and the “UACR Benefit assessment” value ([1]; 1 mg/kg oral once a day, 8 weeks, listed as malate of compound of formula I) was “The benefit was not obvious in one case”. For the same compound, the MALB [1, 5] was 9.5 mg/L and 26.8 mg/L and 0.6 mg/L and 0.9 mg/L (2×), the UACR [1, 5] was 32.8 mg/g and 30.0 mg/g and 2.9 mg/g and 1.6 mg/g and 4.1 mg/g and the MALB [1, 6] was 7.7 ± 11.3 mg/L. For the same compound, the UACR [1, 6] was 14.3 mg/g, the “UACR of W8 decreased by, compared with the baseline” value ([1]; 1 mg/kg qd, one animal) was 39% and the MALB [1, 7] was 1.0 mg/L and 12.5 mg/L and 5.3 mg/L and 103.7 mg/L and 2.4 mg/L. The UACR [1, 7] was 3.1 mg/g and 7.9 mg/g and 12.7 mg/g and 92.9 mg/g and 3.6 mg/g, the MALB [1, 8] was 25.0 ± 44.2 mg/L and the UACR [1, 8] was 24.0 mg/g. The “UACR change rate” value ([1]; 2 mg/kg oral once a day, per animal + Mean ± SD (3/5 animals in statistics, p < 0.01 vs placebo)) was −85.13% and −51.06% and −61.81%, the “UACR change rate” value ([1]; 2 mg/kg oral once a day, per animal + Mean ± SD (3/5 animals in statistics, p < 0.01 vs placebo), mean) was −66.00% and the “UACR Benefit assessment” value [1, 9] was “Benefit”. The MALB [1, 9] was 3.0 mg/L and 0.4 mg/L and 0.6 mg/L and 69.5 mg/L and 3.6 mg/L, the UACR [1, 9] was 5.6 mg/g and 1.2 mg/g and 2.3 mg/g and 59.8 mg/g and 11.2 mg/g and the MALB [1, 10] was 15.4 ± 30.3 mg/L. The UACR [1, 10] was 16.0 ± 24.8 mg/g, the “UACR Benefit assessment” value ([1]; 2 mg/kg oral once a day, 8 weeks, listed as malate of compound of formula I) was “all showed benefits” and the MALB [1, 11] was 1.2 mg/L and 0.6 mg/L and 5.3 mg/L and 145.4 mg/L and 6.8 mg/L. The UACR [1, 11] was 3.5 mg/g and 2.5 mg/g and 15.3 mg/g and 122.1 mg/g and 29.3 mg/g, the MALB [1, 12] was 31.9 ± 63.5 mg/L and the UACR [1, 12] was 34.5 mg/g. The “W8 UACR decreased by on average, compared with the baseline” value ([1]; 2 mg/kg qd, 3/5 animals with moderate to severe proteinuria, p<0.01 vs placebo) was 66.00±17.42%, the “UACR of W8 decreased by, compared with the baseline” value ([1]; 2 mg/kg qd, three animals) was 50%-80% and the UACR change rate ([1]; 5 mg/kg oral once a day, per animal + Mean ± SD (4/6 animals in statistics, p < 0.05 vs placebo)) was 16.75% and −64.10% and −68.62% and −72.14%. The UACR change rate ([1]; 5 mg/kg oral once a day, per animal + Mean ± SD (4/6 animals in statistics, p < 0.05 vs placebo), mean) was −46.87 ± 36.93 %, the “UACR Benefit assessment” value [1, 13] was “all showed benefits and One animal showed no benefit and No and Benefit” and the MALB [1, 13] was 72.4 mg/L and 1.2 mg/L and 3.4 mg/L and 112.3 mg/L and 0.3 mg/L and 21.6 mg/L. For the same compound, the UACR [1, 13] was 138.4 mg/g and 5.7 mg/g and 9.1 mg/g and 87.7 mg/g and 1.8 mg/g and 35.1 mg/g, the MALB [1, 14] was 35.2 ± 46.7 mg/L and the UACR [1, 14] was 46.3 ± 55.4 mg/g. For the same compound, the MALB [1, 15] was 93.2 mg/L and 4.3 mg/L and 46.5 mg/L and 59.3 mg/L and 2.1 mg/L and 26.0 mg/L, the UACR [1, 15] was 118.5 mg/g and 10.5 mg/g and 25.4 mg/g and 279.3 mg/g and 2.4 mg/g and 125.8 mg/g and the MALB [1, 16] was 38.6 ± 35.0 mg/L. For the same compound, the UACR [1, 16] was 93.7 ± 105.9 mg/g, the “UACR of W8 decreased by, compared with the baseline” value ([1]; 5 mg/kg qd, 3 animals) was 60%-70% and the “W8 UACR decreased by on average, compared with the baseline” value ([1]; 5 mg/kg qd, 4/6 animals with moderate-to-severe proteinuria, p<0.05 vs placebo) was 46.87±36.93%. The “effect on UACR and eGFRcreat-cys compared with Valsartan” value ([1]; 2-5 mg/kg qd for 8 weeks) was “equivalent to the Valsartan group”, the “proteinuria (UACR) improvement” value ([1]; 2-5 mg/kg qd for 8 weeks) was “can be significantly improved” and the E/Ea ([2]; 1 mg/kg (n = 5), 8 weeks) was 10.68 and 11.36 and 8.16 and 8.95 and 10.64. The Ea ([2]; 1 mg/kg (n = 5), 8 weeks) was 5.35 cm/s and 5.65 cm/s and 6.99 cm/s and 5.37 cm/s and 5.06 cm/s, the LVEF ([2]; 1 mg/kg (n = 5), 8 weeks) was 63.95% and 55.81% and 54.03% and 61.01% and 49.37% and the E/Ea ([2]; 1 mg/kg (n = 5), Baseline) was 10.50 and 9.53 and 9.22 and 8.68 and 10.36. The Ea ([2]; 1 mg/kg (n = 5), Baseline) was 5.90 cm/s and 6.31 cm/s and 4.81 cm/s and 5.18 cm/s and 6.37 cm/s, the LVEF ([2]; 1 mg/kg (n = 5), Baseline, single animals and Mean ± SD) was 65.25% and 55.89% and 54.86% and 69.87% and 47.92% and the E/Ea ([2]; 2 mg/kg (n = 5), 8 weeks) was 10.63 and 6.35 and 7.84 and 9.88 and 6.22. For the same compound, the Ea ([2]; 2 mg/kg (n = 5), 8 weeks) was 5.00 cm/s and 6.66 cm/s and 8.01 cm/s and 5.91 cm/s and 6.82 cm/s, the LVEF ([2]; 2 mg/kg (n = 5), 8 weeks) was 58.54% and 67.80% and 57.13% and 58.03% and 62.85% and the LVEF ([2]; 2 mg/kg (n = 5), Baseline, single animals and Mean ± SD) was 54.41% and 70.41% and 57.45% and 57.90% and 62.76%. The E/Ea ([2]; 5 mg/kg (n = 6), 8 weeks) was 7.38 and 9.25 and 8.22 and 6.12 and 11.07, the Ea ([2]; 5 mg/kg (n = 6), 8 weeks) was 8.53 cm/s and 8.26 cm/s and 6.47 cm/s and 8.40 cm/s and 6.62 cm/s and the LVEF ([2]; 5 mg/kg (n = 6), 8 weeks) was 62.99% and 45.89% and 73.88% and 54.16% and 55.90%. For the same compound, the LVEF ([2]; 5 mg/kg (n = 6), Baseline, single animals and Mean ± SD) was 63.71% and 42.11% and 71.95% and 49.98% and 59.46%, the “LVEF % compared with the baseline” value ([2]; 5 mg/kg, 8-week administration, 2 animals (No. 5073 and No. 287) with low ejection fraction) was “increased LVEF %” and the “adverse reaction in the systolic and diastolic function (echocardiography)” value ([2]; rhesus monkey, in vivo) was “no obvious adverse reaction”.
